Reference: PubChem BioAssay (NCI)
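Exposure lasted 48 hours, with cells grown in 96-well plates and compounds tested at five concentrations. GI50 marks 50% less growth. TGI: total growth inhibition.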

Key:
Assay in all cases: inhibition of tumour cell growth, NCI panel, 48 h
[1] = test system: 786-0 renal
[2] = test system: A498 renal
[3] = test system: A549 NSCLC
[4] = test system: ACHN renal
[5] = test system: BT-549 breast
[6] = test system: CAKI-1 renal
[7] = test system: CCRF-CEM leukemia
[8] = test system: COLO 205 colon
[9] = test system: DU-145 prostate
[10] = test system: EKVX NSCLC
[11] = test system: HCC-2998 colon
[12] = test system: HCT-116 colon
[13] = test system: HCT-15 colon
[14] = test system: HL-60(TB) leukemia
[15] = test system: HOP-62 NSCLC
[16] = test system: HOP-92 NSCLC
[17] = test system: HS 578T breast
[18] = test system: HT29 colon
[19] = test system: K-562 leukemia
[20] = test system: KM12 colon
[21] = test system: LOX IMVI melanoma
[22] = test system: MALME-3M melanoma
[23] = test system: MCF7 breast
[24] = test system: MDA-MB-231 breast
[25] = test system: MDA-MB-435
[26] = test system: MOLT-4 leukemia
[27] = test system: NCI-H226 lung

With `Ic1ccc2[nH]cc(SSc3c[nH]c4ccc(I)cc34)c2c1` the GI50 [1] was 3.49 µM, the TGI [1] was 12.4 µM and the GI50 [2] was 2.06 µM. The TGI [2] was 5.97 µM, the GI50 [3] was 3.65 µM and the TGI [3] was 12 µM. It also gave a GI50 [4] of 2.25 µM, a TGI [4] of 6.99 µM and a GI50 [5] of 1.35 µM. The TGI [5] was 7.04 µM, the GI50 [6] was 2.23 µM and the TGI [6] was 6.3 µM. The GI50 [7] was 1.25 µM, the TGI [7] was 3.48 µM and the GI50 [8] was 1.91 µM. It also gave a TGI [8] of 4.02 µM, a GI50 [9] of 3.47 µM and a TGI [9] of 12.9 µM. It also gave a GI50 [10] of 1.2 µM, a TGI [10] of 10.1 µM and a GI50 [11] of 2.34 µM. For the same molecule, the TGI [11] was 4.76 µM, the GI50 [12] was 1.25 µM and the TGI [12] was 3.08 µM. For the same molecule, the GI50 [13] was 2.21 µM, the TGI [13] was 10.4 µM and the GI50 [14] was 1.18 µM. For the same molecule, the TGI [14] was 3.56 µM, the GI50 [15] was 3.14 µM and the TGI [15] was 8.71 µM. It also gave a GI50 [16] of 0.936 µM, a TGI [16] of 3.69 µM and a GI50 [17] of 1.93 µM. For the same molecule, the TGI [17] was 6.24 µM, the GI50 [18] was 3.36 µM and the TGI [18] was 11.2 µM. For the same molecule, the GI50 [19] was 2 µM, the TGI [19] was 6.27 µM and the GI50 [20] was 1.5 µM. The TGI [20] was 5.83 µM, the GI50 [21] was 1.43 µM and the TGI [21] was 3.51 µM. It also gave a GI50 [22] of 1.92 µM, a TGI [22] of 8.29 µM and a GI50 [23] of 2.69 µM. It also gave a TGI [23] of 11.6 µM, a GI50 [24] of 2.1 µM and a TGI [24] of 5.13 µM. The GI50 [25] was 2.84 µM, the TGI [25] was 8.97 µM and the GI50 [26] was 1.7 µM. The TGI [26] was 4.62 µM, the GI50 [27] was 1.98 µM and the TGI [27] was 9.35 µM.
